Test results: patent US9212164B2, “Pesticidal compositions and processes related thereto” (Dow AgroSciences LLC, priority 2012, dated 2015)

What was measured:
[1] = system: Beet Armyworm (BAW) (Spodoptera exigua); assay: Bioassays on BAW, 128-well diet tray assay; format: in vivo; conditions: Spodoptera exigua, 168 h; 50 μg/cm^2 on artificial diet, second instar larvae, five to seven days, 25° C.; read-out: BAW Rating (percent mortality)
Description: (§1) Certain molecules disclosed in this document were tested against BAW, CEW and CL using procedures described in the following examples. In the reporting of the results, the “BAW & CEW & CL Rating Table” was used (See Table Section).
Bioassays on BAW (Spodoptera exigua)
Bioassays on BAW were conducted using a 128-well diet tray assay. One to five second instar BAW larvae were placed in each well (3 mL) of the diet tray that had been previously filled with 1 mL of artificial diet to which 50 μg/cm^2 of the test compound (dissolved in 50 μL of 90:10 acetone-water mixture) had been applied (to each of eight wells) and then allowed to dry. Trays were covered with a clear self-adhesive cover, and held at 25° C., 14:10 light-dark for five to seven days. Percent mortality was recorded for the larvae in each well; activity in the eight wells was then averaged. The results are indicated in the tables entitled “Table 3: Assay Results Part 1” and “Table 4: Assay Results Part 2” (See Table Section).

[2] = system: Cabbage Looper (CL) (Trichoplusia ni); assay: Bioassays on CL, 128-well diet tray assay; format: in vivo; conditions: 168 h, 50 μg/cm^2 on artificial diet, second instar larvae, five to seven days, 25° C., read-out: CL Rating (percent mortality)
Description: as §1
Bioassays on CL (Trichoplusia ni)
Bioassays on CL were conducted using a 128-well diet tray assay. One to five second instar CL larvae were placed in each well (3 mL) of the diet tray that had been previously filled with 1 mL of artificial diet to which 50 μg/cm^2 of the test compound (dissolved in 50 μL of 90:10 acetone-water mixture) had been applied (to each of eight wells) and then allowed to dry. Trays were covered with a clear self-adhesive cover, and held at 25° C., 14:10 light-dark for five to seven days. Percent mortality was recorded for the larvae in each well; activity in the eight wells was then averaged. The results are indicated in the table entitled “Table 4: Assay Results Part 2” (See Table Section).

For `COc1ccc(NC(=O)C2(NC(=O)c3ccc(/C=C/C(c4cc(Cl)c(Cl)c(Cl)c4)C(F)(F)F)cc3Br)CC2)cc1` (stereo not shown) [FA40], the mortality at 50 µg/cm2 [1] was 50 to 100% and the mortality at 50 µg/cm2 [2] was 50 to 100%.
In the case of `Cc1cc(/C=C/C(c2cc(Cl)c(Cl)c(Cl)c2)C(F)(F)F)ccc1C(=O)NC1(C(=S)NCC(F)(F)F)CC1` (stereo not shown) [Compound P1011], the mortality at 50 µg/cm2 [1] is reported as 50 to 100% and the mortality at 50 µg/cm2 [2] is reported as 50 to 100%.
In the case of `O=C(NC1(C(=O)NCCF)CC1)c1ccc(/C=C/C(c2cc(Br)cc(Br)c2)C(F)(F)F)cc1C(F)(F)F` (stereo not shown) [Compound P1200], the mortality at 50 µg/cm2 [1] is reported as 50 to 100% and the mortality at 50 µg/cm2 [2] is reported as 50 to 100%.
`CCCN(C)C(=O)C1(NC(=O)c2ccc(/C=C/C(c3cc(Cl)c(Cl)c(Cl)c3)C(F)(F)F)cc2Br)CC1` (stereo not shown) [FA42] gave a mortality at 50 µg/cm2 [1] of 50 to 100% and a mortality at 50 µg/cm2 [2] of 50 to 100%.
`COc1ccc(CNC(=O)C2(NC(=O)c3ccc(/C=C/C(c4cc(Cl)c(Cl)c(Cl)c4)C(F)(F)F)cc3Br)CC2)cc1` (stereo not shown) [FA33] showed a mortality at 50 µg/cm2 [1] of 50 to 100% and a mortality at 50 µg/cm2 [2] of 50 to 100%.
`O=C(NC1(C(=O)NCC(F)(F)F)CC1)c1ccc(/C=C/C(c2ccc(Cl)c([N+](=O)[O-])c2)C(F)(F)F)cc1C(F)(F)F` (stereo not shown) [Compound P470] gave a mortality at 50 µg/cm2 [1] of 50 to 100% and a mortality at 50 µg/cm2 [2] of 50 to 100%.
`O=C(NC1(C(=S)NCC(F)(F)F)CC1)c1ccc(/C=C/C(c2cc(Cl)c(Cl)c(Cl)c2)C(F)(F)F)cc1C(F)(F)F` (stereo not shown) [Compound F6, (E)-4-(4,4,4-Trifluoro-3-(3,4,5-trichlorophenyl)but-1-enyl)-N-(1-(2,2,2-trifluoroethylcarbamothioyl)cyclopropyl)-2-(trifluoromethyl)benzamide] was tested, and the mortality at 50 µg/cm2 [1] was 50 to 100% and the mortality at 50 µg/cm2 [2] was 50 to 100%.
`N#CC1(NC(=O)c2ccc(/C=C/C(c3cc(Cl)c(Cl)c(Cl)c3)C(F)(F)F)cc2Br)CC1` (stereo not shown) [Compound F7, (E)-2-Bromo-N-(1-cyanocyclopropyl)-4-(4,4,4-trifluoro-3-(3,4,5-trichlorophenyl)but-1-en-1-yl)benzamide] showed a mortality at 50 µg/cm2 [1] of 50 to 100% and a mortality at 50 µg/cm2 [2] of 50 to 100%.
Molecule `COCCN(C)C(=O)C1(NC(=O)c2ccc(/C=C/C(c3cc(Cl)c(Cl)c(Cl)c3)C(F)(F)F)cc2Br)CC1` (stereo not shown) [FA43] has a mortality at 50 µg/cm2 [1] of 50 to 100% and a mortality at 50 µg/cm2 [2] of 50 to 100%.
Molecule `O=C(NC1(C(=O)NCC(F)(F)F)CC1)c1ccc(/C=C/[C@H](c2cc(Cl)c(Cl)c(Cl)c2)C(F)(F)F)cc1C(F)(F)F` (single isomer, unassigned) [Compound F8A] has a mortality at 50 µg/cm2 [1] of 50 to 100% and a mortality at 50 µg/cm2 [2] of 50 to 100%.
`O=C(NC1(C(=O)NCC(F)(F)F)CC1)c1ccc(/C=C/C(c2cc(Cl)c(Cl)c(Cl)c2)C(F)(F)F)cc1C(F)(F)F` (stereo not shown) [Compound F8] gave a mortality at 50 µg/cm2 [1] of 50 to 100% and a mortality at 50 µg/cm2 [2] of 50 to 100%.
`Cc1cc(C(/C=C/c2ccc(C(=O)NC3(C(=O)NCC(F)(F)F)CC3)c(Br)c2)C(F)(F)F)cc(C)c1F` (stereo not shown) [Compound P333] gave a mortality at 50 µg/cm2 [1] of 50 to 100% and a mortality at 50 µg/cm2 [2] of 50 to 100%.
Work on `O=C(NC1(C(=O)NCCC(F)(F)F)CC1)c1ccc(/C=C/C(c2cc(Cl)c(Cl)c(Cl)c2)C(F)(F)F)cc1C(F)(F)F` (stereo not shown) [Compound P1035] yielded a mortality at 50 µg/cm2 [1] of 50 to 100% and a mortality at 50 µg/cm2 [2] of 50 to 100%.
`O=C(NC1(C(=O)NCC(F)(F)F)CC1)c1ccc(/C=C/C(c2ccc(Br)c(Br)c2)C(F)(F)F)cc1C(F)(F)F` (stereo not shown) [Compound P425] was tested, and the mortality at 50 µg/cm2 [1] was 50 to 100% and the mortality at 50 µg/cm2 [2] was 50 to 100%.
`COc1cccc(CNC(=O)C2(NC(=O)c3ccc(/C=C/C(c4cc(Cl)c(Cl)c(Cl)c4)C(F)(F)F)cc3Br)CC2)c1` (stereo not shown) [FA35] gave a mortality at 50 µg/cm2 [1] of 50 to 100% and a mortality at 50 µg/cm2 [2] of 50 to 100%.
In the case of `Cc1cc(C(/C=C/c2ccc(C(=O)NC3(C(=O)NCC(F)(F)F)CC3)c(C(F)(F)F)c2)C(F)(F)F)cc(C)c1F` (stereo not shown) [Compound P335], the mortality at 50 µg/cm2 [1] is reported as 50 to 100% and the mortality at 50 µg/cm2 [2] is reported as 50 to 100%.
Work on `Cn1nc(C(F)(F)F)cc1NC(=O)C1(NC(=O)c2ccc(/C=C/C(c3cc(Cl)c(Cl)c(Cl)c3)C(F)(F)F)cc2Br)CC1` (stereo not shown) [FA48] yielded a mortality at 50 µg/cm2 [1] of 50 to 100% and a mortality at 50 µg/cm2 [2] of 50 to 100%.
For `O=C(NC1CC1(F)F)c1ccc(/C=C/C(c2cc(Cl)c(Cl)c(Cl)c2)C(F)(F)F)cc1Br` (stereo not shown) [Compound P31], the mortality at 50 µg/cm2 [1] was 50 to 100% and the mortality at 50 µg/cm2 [2] was 50 to 100%.
Molecule `O=C(NC1(C(=O)Nc2cccc(Cl)c2)CC1)c1ccc(/C=C/C(c2cc(Cl)c(Cl)c(Cl)c2)C(F)(F)F)cc1Br` (stereo not shown) [FA38] has a mortality at 50 µg/cm2 [1] of 0 to 50% and a mortality at 50 µg/cm2 [2] of 0 to 50%.
`O=C(NC1(C(=O)NCCF)CC1)c1ccc(/C=C/C(c2cc(Cl)c(Cl)c(Cl)c2)C(F)(F)F)cc1C(F)(F)F` (stereo not shown) [Compound P1020] showed a mortality at 50 µg/cm2 [1] of 50 to 100% and a mortality at 50 µg/cm2 [2] of 50 to 100%.
`O=C(NC1(C(=O)NCc2cccc(Cl)c2)CC1)c1ccc(/C=C/C(c2cc(Cl)c(Cl)c(Cl)c2)C(F)(F)F)cc1Br` (stereo not shown) [FA27] showed a mortality at 50 µg/cm2 [1] of 50 to 100% and a mortality at 50 µg/cm2 [2] of 50 to 100%.
Work on `O=C(NC1(C(=O)NCC(F)(F)F)CC1)c1ccc(/C=C/C(c2cc(F)cc(Br)c2)C(F)(F)F)cc1Br` (stereo not shown) [Compound P198] yielded a mortality at 50 µg/cm2 [1] of 50 to 100% and a mortality at 50 µg/cm2 [2] of 50 to 100%.
With `O=C(NC1(C(=O)NC2CCCOC2)CC1)c1ccc(/C=C/C(c2cc(Cl)c(Cl)c(Cl)c2)C(F)(F)F)cc1Br` (stereo not shown) [FA47] the mortality at 50 µg/cm2 [1] was 50 to 100% and the mortality at 50 µg/cm2 [2] was 50 to 100%.
`Cc1cc(C(/C=C/c2ccc(C(=O)NC3(C(=O)NCC(F)(F)F)CC3)c(Br)c2)C(F)(F)F)cc(Cl)c1Cl` (stereo not shown) [FA4] showed a mortality at 50 µg/cm2 [1] of 50 to 100% and a mortality at 50 µg/cm2 [2] of 50 to 100%.
Molecule `CC(C)CNC(=O)C1(NC(=O)c2ccc(/C=C/C(c3cc(Cl)c(Cl)c(Cl)c3)C(F)(F)F)cc2Br)CC1` (stereo not shown) [FA30] has a mortality at 50 µg/cm2 [1] of 50 to 100% and a mortality at 50 µg/cm2 [2] of 50 to 100%.
Work on `O=C(NC1(C(=O)NCC(F)(F)F)CC1)c1ccc(/C=C/C(c2cc(Cl)c(Cl)cc2Cl)C(F)(F)F)cc1Br` (stereo not shown) [Compound P108] yielded a mortality at 50 µg/cm2 [1] of 50 to 100% and a mortality at 50 µg/cm2 [2] of 50 to 100%.
`O=C(NC1(C(=O)NCC(F)(F)F)CC1)c1ccc(/C=C/C(c2cc(Cl)cc(Cl)c2)C(F)(F)F)cc1C(F)(F)F` (stereo not shown) [Compound P1050] showed a mortality at 50 µg/cm2 [1] of 50 to 100% and a mortality at 50 µg/cm2 [2] of 50 to 100%.
In the case of `O=C(NC1(C(=O)NCC(F)(F)F)CC1)c1ccc(/C=C/C(c2cccc(OC(F)(F)F)c2)C(F)(F)F)cc1Br` (stereo not shown) [Compound P153], the mortality at 50 µg/cm2 [1] is reported as 50 to 100% and the mortality at 50 µg/cm2 [2] is reported as 50 to 100%.
In the case of `O=C(NC1(C(=O)NCC(F)(F)F)CC1)c1ccc(/C=C/C(c2cc(F)cc(Br)c2)C(F)(F)F)cc1C(F)(F)F` (stereo not shown) [Compound P200], the mortality at 50 µg/cm2 [1] is reported as 50 to 100% and the mortality at 50 µg/cm2 [2] is reported as 50 to 100%.
Molecule `CC(F)(F)C(/C=C/c1ccc(C(=O)NC2(C(=O)NCC(F)(F)F)CC2)c(C(F)(F)F)c1)c1ccc(Cl)c(Cl)c1` (stereo not shown) [FA9] has a mortality at 50 µg/cm2 [1] of 50 to 100% and a mortality at 50 µg/cm2 [2] of 50 to 100%.
`O=C(NC1(C(=O)NCCC(F)(F)F)CC1)c1ccc(/C=C/C(c2cc(Br)cc(Br)c2)C(F)(F)F)cc1Br` (stereo not shown) [Compound P1213] showed a mortality at 50 µg/cm2 [1] of 50 to 100% and a mortality at 50 µg/cm2 [2] of 50 to 100%.
For `Cc1cc(/C=C/C(c2cc(Cl)c(Cl)c(Cl)c2)C(F)(F)F)ccc1C(=O)NC1(C(=O)NCC(F)(F)F)CCC1` (stereo not shown) [FA1], the mortality at 50 µg/cm2 [1] was 50 to 100% and the mortality at 50 µg/cm2 [2] was 50 to 100%.
With `O=C(NC1(C(=O)NCC(F)F)CC1)c1ccc(/C=C/C(c2cc(Cl)c(Cl)c(Cl)c2)C(F)(F)F)cc1Br` (stereo not shown) [FA32] the mortality at 50 µg/cm2 [1] was 50 to 100% and the mortality at 50 µg/cm2 [2] was 50 to 100%.
`Cc1cc(C(/C=C/c2ccc(C(=O)NC3(C(=O)NCC(F)(F)F)CC3)c(C(F)(F)F)c2)C(F)(F)F)cc(Cl)c1Cl` (stereo not shown) [FA3] was tested, and the mortality at 50 µg/cm2 [1] was 50 to 100% and the mortality at 50 µg/cm2 [2] was 50 to 100%.
`O=C(NC1(C(=O)NCC(F)F)CC1)c1ccc(/C=C/C(c2cc(Br)cc(Br)c2)C(F)(F)F)cc1Br` (stereo not shown) [Compound P1193] was tested, and the mortality at 50 µg/cm2 [1] was 50 to 100% and the mortality at 50 µg/cm2 [2] was 50 to 100%.
